Test results: patent US7189710B2, “C2-fluoro pyrrolo [2,1−c][1,4]benzodiazepine dimers” (Council of Scientific and Industrial Research, priority 2004, dated 2007)

Experiments:
[1] = tested on: sixty human tumour cells derived from nine cancer types; experiment: NCI in vitro cytotoxicity screen, sixty human tumour cell lines, SRB assay, 48 h (mean graph midpoints); assay type: cell-based; conditions: 48 h continuous drug exposure, mean over human tumour cell lines; for Log10LC5O mean graph midpoint (MG_MID): 50% cell death (−50% growth); for GI50: 50% cell growth inhibition, read-out: Log10 GI50 mean graph midpoint (MG_MID) (converted); for Log10 TGI mean graph midpoint (MG_MID): total cell growth inhibition (0% growth)
Method: (§1) Biological Activity: In vitro biological activity studies were carried out at National Cancer Institute (USA).
(§2) Cytotoxicity: Compounds IXa and IXc were evaluated for in vitro against sixty human tumour cells derived from nine cancer types (leukemia, non-small-cell lung, colon, CNS, melanoma, ovarian, prostate, and breast cancer). For each compound, dose response curves against each cell line were measured at a minimum of five concentrations at 10 fold dilutions. A protocol of 48 h continuous drug exposure was used and a sulforhodamine B (SRB) protein assay was used to estimate cell viability or growth. The concentration causing 50% cell growth inhibition (GI50), total cell growth inhibition (TGI, 0% growth) and 50% cell death (LC50, −50% growth) compared with the control was calculated.

MCF7 (Breast) = experiment: In vitro one dose primary anticancer assay; assay type: cell-based, human; conditions: one dose at 10^−4 molar concentration
Method: as §1

NCI-H460 (Lung) = experiment: In vitro one dose primary anticancer assay; assay type: cell-based, human; conditions: one dose at 10^−4 molar concentration
Method: as §1

SF-268 (CNS) = experiment: In vitro one dose primary anticancer assay; assay type: cell-based, human; conditions: one dose at 10^−4 molar concentration
Method: as §1

CNS cancer cell lines = experiment: NCI in vitro cytotoxicity, SRB assay, average per cancer type; assay type: cell-based; conditions: Homo sapiens; average of six to eight different cancer cell lines; read-out: Log GI50 (inhibitory concentration), CNS (converted)
Method: as §1, §2
(§3) Each cancer type represent the average of six to eight different cancer cell lines.

breast cancer cell lines = experiment: as above; assay type: cell-based; conditions: Homo sapiens; average of six to eight different cancer cell lines; read-out: Log GI50 (inhibitory concentration), breast (converted)
Method: as §1, §2, §3

colon cancer cell lines = experiment: as above; assay type: cell-based; conditions: Homo sapiens; average of six to eight different cancer cell lines; read-out: Log GI50 (inhibitory concentration), colon (converted)
Method: as §1, §2, §3

[2] = tested on: leukemia cancer cell lines; experiment: as above; assay type: cell-based; conditions: Homo sapiens; average of six to eight different cancer cell lines; read-out: Log GI50 (inhibitory concentration), leukemia (converted)
Method: as §1, §2, §3

[3] = tested on: melanoma cancer cell lines; experiment: as above; assay type: cell-based; conditions: Homo sapiens; average of six to eight different cancer cell lines; read-out: Log GI50 (inhibitory concentration), melanoma (converted)
Method: as §1, §2, §3

[4] = tested on: non-small-cell lung cancer cell lines; experiment: as above; assay type: cell-based; conditions: Homo sapiens; average of six to eight different cancer cell lines; read-out: Log GI50 (inhibitory concentration), non-small-cell lung (converted)
Method: as §1, §2, §3

[5] = tested on: ovarian cancer cell lines; experiment: as above; assay type: cell-based; conditions: Homo sapiens; average of six to eight different cancer cell lines; read-out: Log GI50 (inhibitory concentration), ovarian (converted)
Method: as §1, §2, §3

[6] = tested on: prostate cancer cell lines; experiment: as above; assay type: cell-based; conditions: Homo sapiens; average of six to eight different cancer cell lines; read-out: Log GI50 (inhibitory concentration), prostate (converted)
Method: as §1, §2, §3

renal cancer cell lines = experiment: as above; assay type: cell-based; conditions: Homo sapiens; average of six to eight different cancer cell lines; read-out: Log GI50 (inhibitory concentration), renal (converted)
Method: as §1, §2, §3

SMILES	Log10LC5O mean graph midpoint (MG_MID) [1]	GI50 [1]	Log10 TGI mean graph midpoint (MG_MID) [1]	Growth percentages (Breast) MCF7 (MCF7 (Breast))	Growth percentages (Lung) NCI-H460 (NCI-H460 (Lung))	Growth percentages (CNS) SF-268 (SF-268 (CNS))	GI50 (CNS cancer cell lines)	GI50 (breast cancer cell lines)	GI50 (colon cancer cell lines)	GI50 [2]	GI50 [3]	GI50 [4]	GI50 [5]	GI50 [6]	GI50 (renal cancer cell lines)
COc1cc2c(cc1OCCCOc1cc3c(cc1OC)C(=O)N1C[C@@H](F)C[C@H]1C=N3)N=C[C@@H]1C[C@H](F)CN1C2=O [IXa]	−4.31	6170 nM	−4.75	0%	0%	0%	2860 nM	3240 nM	5190 nM	2150 nM	3240 nM	5520 nM	4900 nM	6610 nM	4840 nM
COc1cc2c(cc1OCCCCCOc1cc3c(cc1OC)C(=O)N1C[C@@H](F)C[C@H]1C=N3)N=C[C@@H]1C[C@H](F)CN1C2=O [IXc]	−4.87	72.4 nM	−6.27	0%	0%	0%	23.7 nM	58.3 nM	86.3 nM	16.1 nM	50 nM	48.1 nM	240 nM	37.2 nM	32.2 nM
